The text below walks through data of US20100249163A1, “RENIN INHIBITORS” (priority 2007, published 2010).

Structures are written as SMILES.

In one assay the target is T1, human recombinant renin (Homo sapiens, UniProt P00797).
T1 sequence (P00797 67-406): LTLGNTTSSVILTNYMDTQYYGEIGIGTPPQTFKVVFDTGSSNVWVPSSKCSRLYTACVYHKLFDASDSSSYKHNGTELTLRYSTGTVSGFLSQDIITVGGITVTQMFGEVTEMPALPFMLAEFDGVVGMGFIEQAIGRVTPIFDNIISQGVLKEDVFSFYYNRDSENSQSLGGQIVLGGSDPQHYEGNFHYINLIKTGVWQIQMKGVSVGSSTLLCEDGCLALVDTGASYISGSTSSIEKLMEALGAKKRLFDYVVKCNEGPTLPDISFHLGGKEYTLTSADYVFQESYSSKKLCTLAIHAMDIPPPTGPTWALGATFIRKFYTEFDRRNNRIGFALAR
Briefly: Renin IC50, QFRET (quenched fluorescence resonance energy transfer) assay. It is filed as biochemical. The conditions noted are these: FRET (quenched fluorescence resonance energy transfer) assay.

The target of another assay is T2, renin in human plasma (Homo sapiens, UniProt P00797).
T2 construct: host or cells: recombinant enzyme added to human plasma from 10 normal donors
T2 sequence (P00797 67-406): T1 sequence (P00797 67-406)
As to the kind of experiment: Inhibition of renin in human plasma. The conditions noted are these: human plasma assay. The assay is classed as biochemical.

As to `COCCc1ccc(Cl)c(CN(C(=O)[C@H]2CNCC[C@]2(OCC(O)CO)c2ccc(F)c(F)c2)C2CC2)c1` (stereo partly drawn) [Example 54, (3S,4R)—N-[2-chloro-5-(2-methoxyethyl)benzyl]-N-cyclopropyl-4-(3,4-difluorophenyl)-4-(2,3-dihydroxypropoxy)piperidine-3-carboxamide], the values for the 50% inhibitory concentration (IC50) on human recombinant renin and against renin in human plasma were 2.4 nM and 4.8 nM, respectively.

In the case of `COCCCc1cc(CN(C(=O)[C@H]2CNCC[C@]2(O)c2cccnc2)C2CC2)cc(OCCOC)c1` (racemic) [Example 2, rac-(3S,4R)—N-cyclopropyl-4-hydroxy-N-[3-(2-methoxyethoxy)-5-(3-methoxypropyl)benzyl]-4-pyridin-3-ylpiperidine-3-carboxamide], the IC50 at human recombinant renin was 140 nM; against renin in human plasma, 280 nM.

Take `COCCCc1cc(CN(C(=O)[C@H]2CNCC[C@]2(O)c2ccn(C)c(=O)c2)C2CC2)cc(OCCOC)c1` (racemic) [Example 23, rac-(3S,4R)—N-cyclopropyl-4-hydroxy-N-[3-(2-methoxyethoxy)-5-(3-methoxypropyl)benzyl]-4-(1-methyl-2-oxo-1,2-dihydropyridin-4-yl)piperidine-3-carboxamide]: the results for the half-inhibitory concentration (IC50) at human recombinant renin and against renin in human plasma were 76 nM and 136 nM, respectively.

With `COCCCc1cc(CN(C(=O)[C@H]2CNCC[C@]2(OC)c2ccc(F)c(F)c2)C2CC2)cc(OCCOC)c1` (racemic) [Example 35, Rac-(3S,4R)—N-cyclopropyl-4-(3,4-difluorophenyl)-4-methoxy-N-[3-(2-methoxyethoxy)-5-(3-methoxypropyl)benzyl]piperidine-3-carboxamide], the IC50 on human recombinant renin was found to be 1 nM; against renin in human plasma it was 4.7 nM.

On to `COCCCc1cc(CN(C(=O)[C@H]2CNCC[C@]2(OCc2ccc(F)cc2)c2ccc(F)c(F)c2)C2CC2)cc(OCCOC)c1` [Example 48, (3S,4R)—N-cyclopropyl-4-(3,4-difluorophenyl)-4-[(4-fluorobenzyl)oxy]-N-[3-(2-methoxyethoxy)-5-(3-methoxypropyl)benzyl]piperidine-3-carboxamide], for which the IC50 amounted to 1.1 nM on human recombinant renin and 61 nM at renin in human plasma.

Take `COCCCc1cc(CN(C(=O)[C@H]2CNCC[C@]2(OCCOC)c2ccc(F)c(F)c2)C2CC2)cc(OCCOC)c1` [Example 49, (3S,4R)—N-cyclopropyl-4-(3,4-difluorophenyl)-4-(2-methoxyethoxy)-N-[3-(2-methoxyethoxy)-5-(3-methoxypropyl)benzyl]piperidine-3-carboxamide]: the IC50 at human recombinant renin came to 2.7 nM; against renin in human plasma, 11 nM.

As for `COCCCc1cc(CN(C(=O)[C@H]2CNCC[C@]2(OCc2cnn[nH]2)c2ccc(F)c(F)c2)C2CC2)cc(OCCOC)c1` [Example 51, (3S,4R)—N-cyclopropyl-4-(3,4-difluorophenyl)-N-[3-(2-methoxyethoxy)-5-(3-methoxypropyl)benzyl]-4-(1H-1,2,3-triazol-5-ylmethoxy)piperidine-3-carboxamide], the figures for the IC50 at human recombinant renin and at renin in human plasma were 3.9 nM and 21 nM, respectively.
